For data set [1] the following is noted: cited from earlier work.
Data set [2] is described as follows: Thermo-Gravimetric Analysis (TGA) of the powder. The format is physicochemical. As to conditions: at processing temperatures and storage temperatures; TGA 25-300° C. @ 5° C./min. On the procedure:
The powder obtained by the process according to the invention as described above and in the following examples was also subjected to Thermo-Gravimetric Analysis (TGA). […] Indeed, the DSC and XRPD experiments indicate that no polymorphic transition of crystalline form B occurs up to temperatures of ca. 170° C.
The TGA analysis data was obtained using a Mettler-Toledo TGA851e apparatus under the following parameters:
Temperature profile: 25-300° C. @ 5° C./min
Nitrogen purge gas, 50 ml/min
Aluminium pan, […], pierced prior to scan

Data set [3] can be described thus: DSC and XRPD experiments, polymorphic transition. In kind it is physicochemical. On the procedure: The X-ray powder diffraction data was obtained by methods known in the art using a Bruker D8 Advance Powder Diffractometer with scintillation detector under the following parameters: Reflection mode Cu Kα radiation (1.5406 Å) Scanning range: 2-50 °2θ Step size: 0.02 °2θ Time per step: 2 s The powder obtained by the process according to the invention as described above and in the following examples was also subjected to Differential Scanning Calorimetry (DSC). The DSC thermal analysis data was obtained using a Mettler-Toledo DSC821e apparatus under the following parameters: • Temperature profile: 25-300° C. @ 5° C./min • Nitrogen purge gas, 50 ml/min • Aluminium pan, […], pierced prior to scan The powder obtained by the process according to the invention as described above and in the following examples was also subjected to Thermo-Gravimetric Analysis (TGA). […] Indeed, the DSC and XRPD experiments indicate that no polymorphic transition of crystalline form B occurs up to temperatures of ca. 170° C.

Regarding `CCCc1nc(C(C)(C)O)c(C(=O)OCc2oc(=O)oc2C)n1Cc1ccc(-c2ccccc2-c2nnn[nH]2)cc1` [Olmesartan medoxomil, 2,3-dihydroxy-2-butenyl 4-(1-hydroxy-1-methylethyl)-2-propyl-1-[p-(o-tetrazol-5-yl-phenyl)benzyl]imidazole-5-carboxylate cyclic 2,3-carbonate], the aqueous solubility entry in data set [1] was “very low”.

Consider `CCCc1nc(C(C)(C)O)c(C(=O)OCc2oc(=O)oc2C)n1Cc1ccc(-c2ccccc2-c2nnn[nH]2)cc1` [crystalline form B, 2,3-dihydroxy-2-butenyl 4-(1-hydroxy-1-methylethyl)-2-propyl-1-[p-(o-tetrazol-5-yl-phenyl)benzyl]imidazole-5-carboxylate cyclic 2,3-carbonate], for which, in data set [2], the “chemical stability, degradation by conversion to other polymorphic forms” value is “chemically stable”. The “temperature up to which no polymorphic transition occurs” value in data set [3] was “ca. 170 °C”.
